Assay results taken from US10793520B2, “Sulfonylaminobenzamide compound and pest control agent” (Nippon Soda Co., Ltd., priority 2016, dated 2020).

The molecules below were run on Mythimna separata (assay: Efficacy test against Mythimna separata (treated artificial feed)). Conditions: in vivo.
Description: Five parts of the compound of the present invention, 93.6 parts of dimethylformamide and 1.4 parts of a polyoxyethylene alkyl aryl ether were mixed together and dissolved to obtain an emulsion (1) containing 5% of the active constituent.
The mortality rate was calculated using the following equation. Mortality rate (%)=(number of dead pests/number of test pests)×100
First, 0.8 g of an artificial feed (Insecta LFS, manufactured by Nosan Corporation) and 1 μl of the emulsion (I) were mixed thoroughly, and 0.2 g of the resulting mixture was placed in each of the treatment areas of a plastic test container (volume: 1.4 ml) to complete preparation of a test feed.
Two second-instar larvae of Mythimna separata were inoculated into each treatment area, and the test container was sealed with a plastic lid. The sealed container was placed in a temperature-controlled room at 25° C., and the mortality rate and the amount of feed consumed were determined on the fifth day. The test was repeated. Further, a test performed under the same conditions, but with the exception of excluding the compound of the present invention from the emulsion (1), was used as a control.

Structure (SMILES) | mortality rate against Mythimna separata, or amount of feed consumed relative to control
CC(C)C(NC(=O)c1ccc(C(F)(F)F)cc1NS(=O)(=O)C(F)(F)F)c1ccc(Cl)cc1 (racemic) [b-3] | 100%, or the amount of feed consumed was 10% or less
O=C(Nc1cc(C(F)(F)F)cc(C(F)(F)F)c1)c1ccc(Cl)cc1NS(=O)(=O)C(F)(F)F [a-1] | 100%, or the amount of feed consumed was 10% or less
O=C(Nc1ccc(F)c(C(F)(F)F)c1)c1ccc(C(F)(F)F)cc1NS(=O)(=O)C(F)(F)F [a-2] | 100%, or the amount of feed consumed was 10% or less
O=C(Nc1cc(C(F)(F)F)cc(C(F)(F)F)c1)c1ccc(C(F)(F)F)cc1NS(=O)(=O)C(F)(F)F [a-3] | 100%, or the amount of feed consumed was 10% or less
O=C(Nc1ccc(C(F)(F)F)cc1)c1ccc(C(F)(F)F)cc1NS(=O)(=O)C(F)(F)F [a-4] | 100%, or the amount of feed consumed was 10% or less
O=C(Nc1ccc(C(F)(F)F)cc1Cl)c1ccc(C(F)(F)F)cc1NS(=O)(=O)C(F)(F)F [a-7] | 100%, or the amount of feed consumed was 10% or less
O=C(Nc1ccc(C(F)(F)F)cn1)c1ccc(C(F)(F)F)cc1NS(=O)(=O)C(F)(F)F [a-8] | 100%, or the amount of feed consumed was 10% or less
O=C(Nc1ccc(C(F)(F)F)c(Cl)c1)c1ccc(C(F)(F)F)cc1NS(=O)(=O)C(F)(F)F [a-10] | 100%, or the amount of feed consumed was 10% or less
O=C(Nc1cc(C(F)(F)F)ccc1F)c1ccc(C(F)(F)F)cc1NS(=O)(=O)C(F)(F)F [a-11] | 100%, or the amount of feed consumed was 10% or less
O=C(Nc1cccc(OC(F)(F)F)c1)c1ccc(C(F)(F)F)cc1NS(=O)(=O)C(F)(F)F [a-12] | 100%, or the amount of feed consumed was 10% or less
Cc1ccc(NC(=O)c2ccc(C(F)(F)F)cc2NS(=O)(=O)C(F)(F)F)cc1 [a-13] | 100%, or the amount of feed consumed was 10% or less
O=C(Nc1ccc(Cl)cc1)c1ccc(C(F)(F)F)cc1NS(=O)(=O)C(F)(F)F [a-14] | 100%, or the amount of feed consumed was 10% or less
O=C(Nc1ccc(OC(F)(F)F)cc1)c1ccc(C(F)(F)F)cc1NS(=O)(=O)C(F)(F)F [a-15] | 100%, or the amount of feed consumed was 10% or less
O=C(Nc1ccc(F)c(C(F)(F)F)c1)c1cc(F)c(F)cc1NS(=O)(=O)C(F)(F)F [a-16] | 100%, or the amount of feed consumed was 10% or less
O=C(Nc1c(Cl)cc(C(F)(F)F)cc1Cl)c1ccc(C(F)(F)F)cc1NS(=O)(=O)C(F)(F)F [a-18] | 100%, or the amount of feed consumed was 10% or less
O=C(Nc1ncc(C(C(F)(F)F)C(F)(F)F)s1)c1ccc(C(F)(F)F)cc1NS(=O)(=O)C(F)(F)F [a-19] | 100%, or the amount of feed consumed was 10% or less
Cc1cc(C(F)(C(F)(F)F)C(F)(F)F)ccc1NC(=O)c1ccc(C(F)(F)F)cc1NS(=O)(=O)C(F)(F)F [a-20] | 100%, or the amount of feed consumed was 10% or less
CN(c1cc(C(F)(F)F)ccc1C(=O)Nc1ccc(F)c(C(F)(F)F)c1)S(=O)(=O)C(F)(F)F [a-21] | 100%, or the amount of feed consumed was 10% or less
O=C(Nc1ccc(Cl)c(Cl)c1)c1ccc(C(F)(F)F)cc1NS(=O)(=O)C(F)(F)F [a-22] | 100%, or the amount of feed consumed was 10% or less
O=C(Nc1ncc(C(F)(F)F)cc1Cl)c1ccc(C(F)(F)F)cc1NS(=O)(=O)C(F)(F)F [a-23] | 100%, or the amount of feed consumed was 10% or less
O=C(Nc1ccc(OC(F)(F)F)cc1)c1ccc(OC(F)(F)F)cc1NS(=O)(=O)C(F)(F)F [a-24] | 100%, or the amount of feed consumed was 10% or less
O=C(Nc1ccc(S(F)(F)(F)(F)F)cc1)c1ccc(C(F)(F)F)cc1NS(=O)(=O)C(F)(F)F [a-28] | 100%, or the amount of feed consumed was 10% or less

Structure (SMILES) | mortality rate against Mythimna separata, or amount of feed consumed relative to control
O=C(Nc1ccc(OC(F)(F)F)cc1)c1ccc(Br)cc1NS(=O)(=O)C(F)(F)F [a-29] | 100%, or the amount of feed consumed was 10% or less
O=C(Nc1ccc(OC(F)(F)F)cc1)c1ccc(C(F)(F)F)cc1NS(=O)(=O)CC(F)(F)F [a-30] | 100%, or the amount of feed consumed was 10% or less
O=C(Nc1ccc(OC(F)(F)F)cc1)c1ccc(-n2cncn2)cc1NS(=O)(=O)C(F)(F)F [a-31] | 100%, or the amount of feed consumed was 10% or less
O=C(Nc1ccc(OC(F)(F)F)cc1)c1ccc(-c2ccc(Cl)nc2)cc1NS(=O)(=O)C(F)(F)F [a-32] | 100%, or the amount of feed consumed was 10% or less
O=C(Nc1ccc(OC(F)(F)F)cc1)c1ccc(C(F)(F)F)cc1NS(=O)(=O)C(F)F [a-33] | 100%, or the amount of feed consumed was 10% or less
O=C(Nc1ccc(OC(F)(F)F)cc1)c1ccc(-c2ccc(C(F)(F)F)nc2)cc1NS(=O)(=O)C(F)(F)F [a-34] | 100%, or the amount of feed consumed was 10% or less
O=C(Nc1ccc(OC(F)(F)F)cc1)c1ccc(-c2ccc(C(F)(F)F)cc2)cc1NS(=O)(=O)C(F)(F)F [a-35] | 100%, or the amount of feed consumed was 10% or less
N#Cc1ccc(C(=O)Nc2ccc(C(F)(F)F)cc2)c(NS(=O)(=O)C(F)(F)F)c1 [a-36] | 100%, or the amount of feed consumed was 10% or less
N#Cc1ccc(NC(=O)c2ccc(C(F)(F)F)cc2NS(=O)(=O)C(F)(F)F)cc1C(F)(F)F [a-37] | 100%, or the amount of feed consumed was 10% or less
N#Cc1ccc(C(=O)Nc2ccc(C(F)(F)F)cc2)c(NS(=O)(=O)CC(F)(F)F)c1 [a-38] | 100%, or the amount of feed consumed was 10% or less
N#Cc1ccc(NC(=O)c2ccc(C(F)(F)F)cc2NS(=O)(=O)C(F)(F)F)cc1 [a-39] | 100%, or the amount of feed consumed was 10% or less
N#Cc1ccc(NC(=O)c2ccc(C#N)cc2NS(=O)(=O)C(F)(F)F)cc1 [a-40] | 100%, or the amount of feed consumed was 10% or less
O=C(Nc1ccc(F)c(C(F)(F)F)c1)c1ccc(Cl)cc1NS(=O)(=O)C(F)(F)F [a-41] | 100%, or the amount of feed consumed was 10% or less
O=C(Nc1ccc(OC(F)(F)F)cc1)c1ccc(-c2ccc(C(F)(F)F)cc2Cl)cc1NS(=O)(=O)C(F)(F)F [a-42] | 100%, or the amount of feed consumed was 10% or less
COC(=O)c1cc(Br)ccc1NC(=O)c1ccc(C(F)(F)F)cc1NS(=O)(=O)C(F)(F)F [a-49] | 100%, or the amount of feed consumed was 10% or less
O=C(Nc1ccc([N+](=O)[O-])cc1)c1ccc(C(F)(F)F)cc1NS(=O)(=O)C(F)(F)F [a-50] | 100%, or the amount of feed consumed was 10% or less
N#Cc1cc(Cl)ccc1NC(=O)c1ccc(C(F)(F)F)cc1NS(=O)(=O)C(F)(F)F [a-51] | 100%, or the amount of feed consumed was 10% or less
N#Cc1ccc(NC(=O)c2ccc(C(F)(F)F)cc2NS(=O)(=O)C(F)(F)F)c(F)c1 [a-53] | 100%, or the amount of feed consumed was 10% or less
O=C(Nc1ccc(C(F)(F)F)cc1F)c1ccc(C(F)(F)F)cc1NS(=O)(=O)C(F)(F)F [a-54] | 100%, or the amount of feed consumed was 10% or less
O=C(Nc1ccc(Cl)cc1C(F)(F)F)c1ccc(C(F)(F)F)cc1NS(=O)(=O)C(F)(F)F [a-55] | 100%, or the amount of feed consumed was 10% or less
O=C(Nc1ccnc(OCC(F)(F)F)c1)c1ccc(C(F)(F)F)cc1NS(=O)(=O)C(F)(F)F [a-56] | 100%, or the amount of feed consumed was 10% or less
COC(=O)c1cc(F)ccc1NC(=O)c1ccc(C(F)(F)F)cc1NS(=O)(=O)C(F)(F)F [a-57] | 100%, or the amount of feed consumed was 10% or less
